From US20230114728A1 (Venatorx Pharmaceuticals, Inc., priority 2019, published 2023)
Converted amounts (≈) assume the structure as drawn.

Assays:
N. gonorrhoeae WHO K = experiment: Liquid broth MIC in Fastidious broth; type: cell-based; settings: Neisseria gonorrhoeae, read-out: Minimum Inhibitory Concentration, N. gonorrhoeae WHO K
Method: (§1) Example V: In Vitro Antibacterial Assays for N. gonorrhoeae Strains
(§2) Additional antibacterial testing of the series was performed in 8 reference strains of N. gonorrhoeae (ATCC 49226, FA1090, WHO G, WHO L, WHO K, H041, WHO Z, and WHO Q). ATCC 49226, FA1090, WHO G, and WHO L produce wild type or wild-type like PBP2. WHO K, H041, WHO Z, and WHO Q produce mosaic PBP2. Liquid broth-based assays were used for antibacterial testing of PBP inhibitors in Neisseria gonorrhoeae. Briefly, cryo-preserved bacterial cultures of clinical strains were streaked for isolation on Chocolate Agar (72 g/L (2×) GC Agar Base (BD #228950) and 2% (2×) Hemoglobin was autoclaved at 121° C. for 20 minutes to sterilize. Once cooled to ˜50° C. the 2× GC Agar Base and 2× Hemoglobin solutions are combined and 1% IsoVitaleX Enrichment (BD #211876) was added to the solution). Strains were incubated at 36° C. and 5% CO2 to allow growth of colonies, 24 hours before inoculum preparation. 2-fold serial dilutions of test compounds were conducted in a 96 well plate with a final volume of 75 μL per well at 2-fold the final desired concentration in Fastidious broth (Remel #R07664). For preparation of assay inoculum, a direct suspension was prepared by aseptically swabbing all colonies from agar plates into culture tubes containing 2 mL of fresh sterile saline. After the dilution plates were set up, direct suspensions were then diluted in a cuvette containing sterile saline and the optical density was measured at 600 nm. Inocula were diluted such that 75 μL of this culture in Fastidious broth results in a starting bacterial concentration of 5×10^5 CFU/mL when added to the dilution plates. The plates were incubated for ˜24 hours at 36° C. and 5% CO2. The MIC was read visually as the lowest concentration well with <10% bacterial growth compared to wells of full growth.

N. gonorrhoeae FA1090 = experiment: Liquid broth MIC in Fastidious broth; type: cell-based; settings: Neisseria gonorrhoeae; N. gonorrhoeae strain FA1090; Fastidious broth; read-out: Minimum Inhibitory Concentration, N. gonorrhoeae FA1090
Method: as §1, §2

N. gonorrhoeae WHO G = experiment: Liquid broth MIC in Fastidious broth; type: cell-based; settings: Neisseria gonorrhoeae; N. gonorrhoeae strain WHO G; Fastidious broth; read-out: Minimum Inhibitory Concentration, N. gonorrhoeae WHO G
Method: as §1, §2

N. gonorrhoeae H041 = experiment: Liquid broth MIC in Fastidious broth; type: cell-based; settings: Neisseria gonorrhoeae, H041, read-out: Minimum Inhibitory Concentration, N. gonorrhoeae H041
Method: as §1, §2

[1] = tested on: N. gonorrhoeae ATCC 49226; experiment: Liquid broth MIC in Fastidious broth; type: cell-based; settings: Neisseria gonorrhoeae, ATCC49226; N. gonorrhoeae strain ATCC 49226; Fastidious broth; read-out: Minimum Inhibitory Concentration, N. gonorrhoeae ATCC 49226
Method: as §1, §2

N. gonorrhoeae WHO L = experiment: Liquid broth MIC in Fastidious broth; type: cell-based; settings: Neisseria gonorrhoeae; N. gonorrhoeae strain WHO L; Fastidious broth; read-out: Minimum Inhibitory Concentration, N. gonorrhoeae WHO L
Method: as §1, §2

E. coli K12 PBP3 = biological target: T1, E. coli K12 PBP3 (Escherichia coli, UniProt P0AD68); experiment: biochemical; type: binding
T1 construct: made in house
T1 sequence (P0AD68 1-577): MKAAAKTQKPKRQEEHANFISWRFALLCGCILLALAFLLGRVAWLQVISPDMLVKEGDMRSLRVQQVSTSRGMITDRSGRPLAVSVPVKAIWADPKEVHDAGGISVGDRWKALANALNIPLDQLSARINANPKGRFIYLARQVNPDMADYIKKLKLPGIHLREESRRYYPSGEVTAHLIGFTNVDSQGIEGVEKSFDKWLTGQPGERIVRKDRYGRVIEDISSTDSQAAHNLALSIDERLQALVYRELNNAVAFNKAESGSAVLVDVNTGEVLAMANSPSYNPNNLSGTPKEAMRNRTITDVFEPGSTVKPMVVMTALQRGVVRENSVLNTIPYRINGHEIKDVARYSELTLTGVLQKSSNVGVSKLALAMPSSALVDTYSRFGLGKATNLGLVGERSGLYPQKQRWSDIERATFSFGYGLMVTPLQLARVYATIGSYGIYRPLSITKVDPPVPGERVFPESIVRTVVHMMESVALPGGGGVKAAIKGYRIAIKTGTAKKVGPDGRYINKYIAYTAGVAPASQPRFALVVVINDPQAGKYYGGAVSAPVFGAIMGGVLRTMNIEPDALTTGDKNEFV
How it was run: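 Fluorescence polarization (ex 490/em 520 nm) competition of inhibitors against Bocillin-FL at 0.1 μM, read up to 60 min. Final PBP levels: E. coli PBP3 1.5 μM; A. baumannii PBP2 2.5 μM, PBP3 0.2 μM in Tris pH 8.0/NaCl/glycerol/Tween 20; N. gonorrhoeae PBP2 […] in Hepes pH 8.0/NaCl/glycerol. EC50 = concentration halving PBP-bound Bocillin-FL.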

Compound | MIC (N. gonorrhoeae WHO K) | MIC (N. gonorrhoeae FA1090) | MIC (N. gonorrhoeae WHO G) | MIC (N. gonorrhoeae H041) | MIC [1] | MIC (N. gonorrhoeae WHO L) | EC50 (E. coli K12 PBP3)
O=C(O)c1ccc(C(NC(=O)c2ccc(O)c(O)c2Cl)C(=O)N[C@H]2Cc3cccc(C(=O)O)c3OB2O)cc1F (stereo partly drawn) [Example 7, (3R)-3-(2-(4-carboxy-3-fluorophenyl)-2-(2-chloro-3,4-dihydroxybenzamido)acetamido)-2-hydroxy-3,4-dihydro-2H-benzo[e][1,2]oxaborinine-8-carboxylic acid] | > 64 µg/mL | 16 to 32 µg/mL (≈ 27.9 to 55.9 µM) | > 64 µg/mL | > 64 µg/mL | > 64 µg/mL | > 64 µg/mL | 30 to 500 µM
O=C(NC(C(=O)N[C@H]1Cc2ccc(F)c(C(=O)O)c2OB1O)c1ncc(O)cc1F)c1ccc(O)c(O)c1Cl (stereo partly drawn) [Example 8, (3R)-3-(2-(2-chloro-3,4-dihydroxybenzamido)-2-(3-fluoro-5-hydroxypyridin-2-yl)acetamido)-7-fluoro-2-hydroxy-3,4-dihydro-2H-benzo[e][1,2]oxaborinine-8-carboxylic acid] | > 64 µg/mL | 4 to 8 µg/mL (≈ 7.1 to 14.2 µM) | 16 to 32 µg/mL (≈ 28.4 to 56.8 µM) | > 64 µg/mL | > 64 µg/mL | > 64 µg/mL | 30 to 500 µM
O=C(Nc1ccc(O)c(O)c1Cl)NC(C(=O)N[C@H]1Cc2ccc(F)c(C(=O)O)c2OB1O)c1ncc(O)cc1F (stereo partly drawn) [Example 9, (3R)-3-(2-(3-(2-chloro-3,4-dihydroxyphenyl)ureido)-2-(3-fluoro-5-hydroxypyridin-2-yl)acetamido)-7-fluoro-2-hydroxy-3,4-dihydro-2H-benzo[e][1,2]oxaborinine-8-carboxylic acid] | > 64 µg/mL | 16 to 32 µg/mL (≈ 27.6 to 55.3 µM) | > 64 µg/mL | > 64 µg/mL | > 64 µg/mL | > 64 µg/mL | 30 to 500 µM
O=C(NC(C(=O)N[C@H]1Cc2ccc(F)c(C(=O)O)c2OB1O)c1ncc(O)cc1F)c1c(F)cc(O)c(O)c1Cl (stereo partly drawn) [Example 10, (3R)-3-(2-(2-chloro-6-fluoro-3,4-dihydroxybenzamido)-2-(3-fluoro-5-hydroxypyridin-2-yl)acetamido)-7-fluoro-2-hydroxy-3,4-dihydro-2H-benzo[e][1,2]oxaborinine-8-carboxylic acid] | > 64 µg/mL | 16 to 32 µg/mL (≈ 27.5 to 55 µM) | > 64 µg/mL | > 64 µg/mL | > 64 µg/mL | > 64 µg/mL | 30 to 500 µM
O=C(O)c1ccc(C(NC(=O)N2CCN(CCNC(=O)c3ccc(O)c(O)c3Cl)C(=O)C2=O)C(=O)N[C@H]2Cc3ccc(F)c(C(=O)O)c3OB2O)cc1F (stereo partly drawn) [Example 11, (3R)-3-(2-(4-carboxy-3-fluorophenyl)-2-(4-(2-(2-chloro-3,4-dihydroxybenzamido)ethyl)-2,3-dioxopiperazine-1-carboxamido)acetamido)-7-fluoro-2-hydroxy-3,4-dihydro-2H-benzo[e][1,2]oxaborinine-8-carboxylic acid] | > 64 µg/mL | 1 to 2 µg/mL (≈ 1.29 to 2.58 µM) | 4 to 8 µg/mL (≈ 5.17 to 10.3 µM) | > 64 µg/mL | 16 to 32 µg/mL (≈ 20.7 to 41.4 µM) | > 64 µg/mL | < 30 µM
CCN1CCN(C(=O)NC(C(=O)N[C@H]2Cc3ccc(F)c(C(=O)O)c3OB2O)c2ccc(C(=O)O)cc2)C(=O)C1=O (stereo partly drawn) [Example 15, (3R)-3-(2-(4-carboxyphenyl)-2-(4-ethyl-2,3-dioxopiperazine-1-carboxamido)acetamido)-7-fluoro-2-hydroxy-3,4-dihydro-2H-benzo[e][1,2]oxaborinine-8-carboxylic acid] | 4 to 8 µg/mL (≈ 7.01 to 14 µM) | 0.25 to 0.5 µg/mL (≈ 0.438 to 0.877 µM) | 4 to 8 µg/mL (≈ 7.01 to 14 µM) | 4 to 8 µg/mL (≈ 7.01 to 14 µM) | 4 to 8 µg/mL (≈ 7.01 to 14 µM) | > 64 µg/mL | < 30 µM
CCN1CCN(C(=O)NC(C(=O)N[C@H]2Cc3cccc(C(=O)O)c3OB2O)c2ccc(O)c(NC(C)=O)c2)C(=O)C1=O (stereo partly drawn) [Example 17, (3R)-3-(2-(3-acetamido-4-hydroxyphenyl)-2-(4-ethyl-2,3-dioxopiperazine-1-carboxamido)acetamido)-2-hydroxy-3,4-dihydro-2H-benzo[e][1,2]oxaborinine-8-carboxylic acid] | > 64 µg/mL | 1 to 2 µg/mL (≈ 1.72 to 3.44 µM) | > 64 µg/mL | > 64 µg/mL | > 64 µg/mL | > 64 µg/mL | 30 to 500 µM
CCN1CCN(C(=O)NC(C(=O)N[C@H]2Cc3ccc(F)c(C(=O)O)c3OB2O)c2nc(N)sc2F)C(=O)C1=O (stereo partly drawn) [Example 18, (3R)-3-(2-(2-amino-5-fluorothiazol-4-yl)-2-(4-ethyl-2,3-dioxopiperazine-1-carboxamido)acetamido)-7-fluoro-2-hydroxy-3,4-dihydro-2H-benzo[e][1,2]oxaborinine-8-carboxylic acid] | 16 to 32 µg/mL (≈ 28.3 to 56.5 µM) | 1 to 2 µg/mL (≈ 1.77 to 3.53 µM) | 4 to 8 µg/mL (≈ 7.06 to 14.1 µM) | 16 to 32 µg/mL (≈ 28.3 to 56.5 µM) | 4 to 8 µg/mL (≈ 7.06 to 14.1 µM) | 16 to 32 µg/mL (≈ 28.3 to 56.5 µM) | < 30 µM
CCN1CCN(C(=O)N[C@H](C(=O)N[C@H]2Cc3cccc(C(=O)O)c3OB2O)c2nc(Cl)c(C(=O)O)cc2F)C(=O)C1=O [Example 19, 6-((S)-2-(((R)-8-carboxy-2-hydroxy-3,4-dihydro-2H-benzo[e][1,2]oxaborinin-3-yl)amino)-1-(4-ethyl-2,3-dioxopiperazine-1-carboxamido)-2-oxoethyl)-2-chloro-5-fluoronicotinic acid] | > 64 µg/mL | 1 to 2 µg/mL (≈ 1.65 to 3.3 µM) | 4 to 8 µg/mL (≈ 6.6 to 13.2 µM) | > 64 µg/mL | 16 to 32 µg/mL (≈ 26.4 to 52.8 µM) | > 64 µg/mL | < 30 µM
CCN1CCN(C(=O)NC(C(=O)N[C@H]2Cc3cccc(C(=O)O)c3OB2O)c2ncc(C(=O)O)cc2F)C(=O)C1=O (stereo partly drawn) [Example 20, 6-(2-(((R)-8-carboxy-2-hydroxy-3,4-dihydro-2H-benzo[e][1,2]oxaborinin-3-yl)amino)-1-(4-ethyl-2,3-dioxopiperazine-1-carboxamido)-2-oxoethyl)-5-fluoronicotinic acid] | 16 to 32 µg/mL (≈ 28 to 56 µM) | 1 to 2 µg/mL (≈ 1.75 to 3.5 µM) | 4 to 8 µg/mL (≈ 7 to 14 µM) | 16 to 32 µg/mL (≈ 28 to 56 µM) | 4 to 8 µg/mL (≈ 7 to 14 µM) | > 64 µg/mL | < 30 µM
CCN1CCN(C(=O)NC(C(=O)N[C@H]2Cc3cccc(C(=O)O)c3OB2O)c2ccc(O)c(N(S(C)(=O)=O)S(C)(=O)=O)c2)C(=O)C1=O (stereo partly drawn) [Example 21, (3R)-3-(2-(4-ethyl-2,3-dioxopiperazine-1-carboxamido)-2-(4-hydroxy-3-(N-(methylsulfonyl)methylsulfonamido)phenyl)acetamido)-2-hydroxy-3,4-dihydro-2H-benzo[e][1,2]oxaborinine-8-carboxylic acid] | > 64 µg/mL | 4 to 8 µg/mL (≈ 5.75 to 11.5 µM) | > 64 µg/mL | > 64 µg/mL | > 64 µg/mL | > 64 µg/mL | < 30 µM
CCN1CCN(C(=O)NC(C(=O)N[C@H]2Cc3cccc(C(=O)O)c3OB2O)c2ccc(O)c(NS(C)(=O)=O)c2)C(=O)C1=O (stereo partly drawn) [Example 22, (3R)-3-(2-(4-ethyl-2,3-dioxopiperazine-1-carboxamido)-2-(4-hydroxy-3-(methylsulfonamido)phenyl)acetamido)-2-hydroxy-3,4-dihydro-2H-benzo[e][1,2]oxaborinine-8-carboxylic acid] | > 64 µg/mL | 1 to 2 µg/mL (≈ 1.62 to 3.24 µM) | 16 to 32 µg/mL (≈ 25.9 to 51.8 µM) | > 64 µg/mL | > 64 µg/mL | > 64 µg/mL | < 30 µM
